The text below walks through data of US4351948A, “Imidazole hydrazone derivatives” (priority 1980, dated 1982).

Series [1] deals with platelet aggregation. Nature of the series: Platelet aggregation after oral administration in the retired male breeder rat model. The format is in vivo. To be noted: read-out: ED50 (3 hr. post oral administration). From the text:
HC 501 has also been evaluated for platelet aggregation 3 hrs. after oral administration in the retired male breeder rat model (R. N. Saunders et al, Lab. Anim. Sci., 1977, 27, 757).

Series [2] relates to Staphylococcus aureus. Briefly: Anti-bacterial activity, zone diameter. Type of series: cell-based. To be noted: for zone of inhibition at 50 µg/disc: read-out: Zone diameter given by 50 μg of drug. From the text: (§1) The anti-bacterial activity of the compound HC274 according to the present invention was also compared with the activity of known anti-bacterial agents with the following results: […]

In series [3] the test system is pseudomonas aeruginosa. Nature of the series: Anti-bacterial activity, zone diameter. Type of series: cell-based. To be noted: for zone of inhibition at 50 µg/disc: read-out: Zone diameter given by 50 μg of drug.
Description: as §1

In series [4] the test system is Streptococcus pyrogenes. Briefly: Anti-bacterial activity, zone diameter. To be noted: for zone of inhibition at 50 µg/disc: read-out: Zone diameter given by 50 μg of drug. Type of series: cell-based.
Description: as §1

The test system of series [5] is Nocardia brasiliensis. Nature of the series: Anti-bacterial activity, zone diameter. The format is cell-based. To be noted: for zone of inhibition at 50 µg/disc: read-out: Zone diameter given by 50 μg of drug.
Description: as §1

Series [6] deals with Escherichia coli. Briefly: Anti-bacterial activity, zone diameter. Type of series: cell-based. To be noted: for zone of inhibition at 50 µg/disc: read-out: Zone diameter given by 50 μg of drug.
Description: as §1

The subject of series [7] is Klebsiella pneumoniac. Nature of the series: Anti-bacterial activity, zone diameter. The format is cell-based. To be noted: for zone of inhibition at 50 µg/disc: read-out: Zone diameter given by 50 μg of drug.
Description: as §1

Series [8] has as its system Proteus vulgaris. Briefly: Anti-bacterial activity, zone diameter. The format is cell-based. To be noted: for zone of inhibition at 50 µg/disc: read-out: Zone diameter given by 50 μg of drug.
Description: as §1

Series [9] concerns Nocardia asteroides. Nature of the series: Anti-bacterial activity, zone diameter. To be noted: for zone of inhibition at 50 µg/disc: read-out: Zone diameter given by 50 μg of drug. The format is cell-based.
Description: as §1

Series [10] deals with C. perfringens (ATCC 13124). Nature of the series: microbe, parasite or virus in culture. Type of series: cell-based. To be noted: Clostridium perfringens, ATCC13124, 24 h.
For series [11], the system named is B. fragilis ATCC 23745. Nature of the series: Antianaerobic activity, MIC by standard broth dilution method (Table II). Type of series: cell-based. To be noted: Bacteroides fragilis, ATCC23745, 24 h, read-out: Minimal Inhibitory Concentration (MIC). As for the experimental part: (§2) The activity of the compounds identified in the Table II below was tested for antianaerobic activity against one strain of Bacteroides fragilis, one strain of Bacteroides uniformis, one strain of Clostridium sporogenes and one strain of Trichomonas vaginalis as the test organism. The methods used involved determining the minimum inhibitory concentration by the standard broth dilution method. […] For convenience the compounds are referred to by an internal reference number (an HC number) and this is correlated with the number of the Example wherein its production is described.

The test system of series [12] is B. uniformis ATCC 8492. The description is as above. Type of series: cell-based. To be noted: Bacteroides uniformis, ATCC8492, 24 h, read-out: Minimal Inhibitory Concentration (MIC). As for the experimental part: as §2
Series [13] relates to T. vaginalis ATCC 30001. The series is described as above. The format is cell-based. To be noted: Trichomonas vaginalis, ATCC30001, 24 h, read-out: Minimal Inhibitory Concentration (MIC). How it is done:
as §2

Series [14] deals with candida albicans. Nature of the series: Oral treatment: recovery of viable candida albicans from the kidneys of infected mice. The format is in vivo. From the text:
Effect of oral treatment with HC274, HC316, HC390, HC415 and Ketoconazole on the recovery of viable candida albicans from the kidneys of infected mice.

In series [15] the test system is C. sporogenes ATCC 19404. Briefly: Antianaerobic activity, MIC by standard broth dilution method (Table II). The format is cell-based. To be noted: Clostridium sporogenes, ATCC19404, 24 h, read-out: Minimal Inhibitory Concentration (MIC). As for the experimental part: The activity of the compounds identified in the Table II below was tested for antianaerobic activity against one strain of Bacteroides fragilis, one strain of Bacteroides uniformis, one strain of Clostridium sporogenes and one strain of Trichomonas vaginalis as the test organism. The methods used involved determining the minimum inhibitory concentration by the standard broth dilution method. The values for metronidazole (2-methyl-5-nitro-1H-imidazole-1-ethanol) are given above for reference purposes. For convenience the compounds are referred to by an internal reference number (an HC number) and this is correlated with the number of the Example wherein its production is described.

The nature of series [16]: in vivo. To be noted: male mice, 7 day.
Series [17] concerns platelet thromboxane generation. Nature of the series: Inhibition of platelet thromboxane generation (TxB2, collagen-stimulated human platelet rich plasma). Type of series: cell-based. To be noted: 10 min, collagen 8 μg/ml, human PRP, 10 min. incubation, 37° C., read-out: Activity IC50 (50% inhibition of TxB2 generation). As for the experimental part:
The compounds used according to the invention as anti-thrombotics were tested by the following method for their ability to inhibit platelet thromboxane generation.
Human venous blood was collected from healthy male donors, who had denied any medication in the previous 14 days. Nine volumes of blood were mixed with one volume of 3.24% trisodium citrate. The citrated blood was centrifuged at 160 g for 10 mins. at 22° C. to obtain platelet rich plasma (PRP). The platelets were then counted on a Coulter counter, and the platelet count was adjusted to 200,000 per μl with plasma.
The PRP was then dispensed as aliquots into micro-Eppendorf tubes, maintained at 37° C. in a dry bath. The compounds dissolved either in saline, ethanol, or DMSO were added in duplicate to the PRP aliquots to produce final concentrations of 0.3, 3 and 30 μg/ml. When ethanol and DMSO were used as the vehicle, triplicate controls containing the same percentage of vehicle as the test compounds were made. The final concentration or organic solvent was never more than 0.1%, which in previous experiments had no effect on TxB2 generation.
Following a 10 min. incubation with test compounds or vehicle, collagen was added to produce a final concentration of 8 μg/ml. The tubes were then whirly-mixed for 15 seconds and replaced in the dry bath for a further 10 minutes, controls received saline instead of collagen. The reaction was then stopped by rapid centrifugation, 15,000 g for 3 mins. The plasma was removed and frozen at -29° C. until assayed.
Briefly, 100 μl aliquots, in tricine buffered saline+0.8% gelatin (pH 8.0) of the following were incubated together for 1 hour at 37° C.: thromboxane Tx B2 (plasma extract, spiked plasma extract or standards 20 to 20,000 pg/ml), ^3 H--TxB2 (approximately 15,000 dpm) and anti-TxB2 antiserum (0.5 μg/100 μl). The free and protein bound ^3 H--TxB2 were separated by ammonium sulphate precipitation followed by centrifugation. 300 μl of the supernatant was added to an aqueous scintillation fluid, and the radioactivity present was counted in a liquid scintillation counter. The binding of ^3 H--TxB2 in the absence of added TxB2 was approximately 55%. The least amount of TxB2 to be detected accurately in the plasma was 0.08 ng/ml. Cross reactivity with other prostaglandins is less than 0.005% except PGD2 which is 1%.
Thus plasma samples were assayed to give a rough approximation of TxB2 content. The plasma was then appropriately diluted and assayed in duplicate to give accurate values.
The amount of TxB2 generated by the collagen was calculated by subtracting mean values obtained for the saline stimulated platelets from the mean values obtained from the collagen stimulated platelets. Then the amount of TxB2 generated in the presence of each concentration of compound was expressed as a % control and dose response curves were then constructed to determine the concentration of compound which produced a 50% inhibition.

[18] abbreviates: oral, 3 hr, retired male breeder rat.

Counter-ions that a name gives are not always drawn. Like-named read-outs stand apart in the source and are kept apart here. A value given as a limit tells only on which side of the number the result lay.

Regarding `OCCN(CCO)c1nc(N2CCCCC2)c2nc(N(CCO)CCO)nc(N3CCCCC3)c2n1` [Dipyridamide, 2,2',2",2"',[(4,8Di-1-piperidinyl-pyrimido]5,4d[pyrimidine2,6-diyl)dinitrlo] tetrakisethanol], in series [1] (setting [18]), the ED50 turned out to be 6.8 mg/kg.

As to `CC1(C)S[C@@H]2[C@H](NC(=O)[C@H](N)c3ccccc3)C(=O)N2[C@H]1C(=O)O` [AMP, Ampicillin], the zone of inhibition at 50 µg/disc in [2] (50 μg) is 21 mm; in series [3] (50 μg, pseudomonas aeruginosa), 0 mm; in series [4] (50 μg, Streptococcus pyrogenes), 25 mm; in series [5] (50 μg), 38 mm; in [6] (50 μg), 17 mm; in [7] (50 μg, Klebsiella pneumoniac), 11 mm. The zone of inhibition at 50 µg/disc in series [8] (50 μg) was found to be 28 mm; in series [9] (50 μg) it was 38 mm.

Consider Polymyxin [PM], for which the “Zone diameter given by 50 μg of drug” value turned out to be 7 MM in series [2] (50 μg); 10 MM in series [3] (50 μg, pseudomonas aeruginosa); 0 MM in series [4] (50 μg, Streptococcus pyrogenes); 0 MM in series [5] (50 μg); 10 MM in series [6] (50 μg); 10 MM in [7] (50 μg, Klebsiella pneumoniac). Besides, the “Zone diameter given by 50 μg of drug” value in series [8] (50 μg) was 12 MM; in [9] (50 μg), 11 MM.

Take `CC(=O)Oc1ccccc1C(=O)O` [Aspirin, 2(Acetyloxy)benzoic acid]: the ED50 in series [1] (Rattus norvegicus, po, 3 h) came to 7.7 mg/kg.

For `O=C1C(CC[S+]([O-])c2ccccc2)C(=O)N(c2ccccc2)N1c1ccccc1` (stereo not shown) [Sulfinpyrazone], the ED50 in series [1] (setting [18]) worked out at 4.1 mg/kg.

Usually LD50 stands for the dose expected to kill half of the subjects tested. For `Clc1ccc(/C(Cn2ccnc2)=N/Nc2c(Cl)cccc2Cl)s1` [HC390, (E)-1-(5-chlorothienyl-2-yl)-2-(1H-imidazol-1-yl)ethanone, 2,6-dichlorophenylhydrazone, hydrochloride], the MIC in series [10] amounted to 3.1 µg/mL; in series [11] (Test 1), 5 µg/mL; in series [11] (Test 2), 2.5 µg/mL; in series [11] (Test 3), 2.5 µg/mL; in [12] (Test 1), 2.5 µg/mL; in [12] (Test 2), 2.5 µg/mL. For the same compound, the MIC in series [12] (Test 3) is 2.5 µg/mL; in [13] (Test 1), above 50 µg/mL; in series [13] (Test 2) it was above 50 µg/mL; in series [13] (Test 3), above 50 µg/mL; in series [15] (Test 1) it was 2.5 µg/mL; in [15] (Test 2) it was 5 µg/mL. Besides, the MIC in series [15] (Test 3) turned out to be 7.5 µg/mL. Besides, the “Recovery of C.albicans (as percentage of control)” value in series [14] (5 mg/kg) is 57.3 percentage of control; in [14] (20 mg/kg), 41.1 percentage of control. The LD50 at 168 h in series [16] (mouse, in vivo, ip, read-out: LD50) worked out at 610 mg/kg. In addition, the LD12.5 in [16] (p.o.) was above 1500 mg/kg.

In the case of `Cl.Clc1ccc(NN=C(Cn2ccnc2)c2ccccc2Cl)c(Cl)c1` [HC316, 1-(2-Chlorophenyl)-2-(1H-imidazol-1-yl)ethanone, 2,4-dichlorophenylhydrazone, hydrochloride], the MIC was 0.8 µg/mL in series [10]; 2.5 µg/mL in [11] (Test 1); 2.5 µg/mL in [11] (Test 2); 2.5 µg/mL in [11] (Test 3); 2.5 µg/mL in series [12] (Test 1); 2.5 µg/mL in series [12] (Test 2). The MIC in [12] (Test 3) came to 2.5 µg/mL; in series [13] (Test 1) it was 50 µg/mL; in series [13] (Test 2), 50 µg/mL; in series [13] (Test 3), 50 µg/mL; in series [15] (Test 1), 1 µg/mL; in [15] (Test 2) it was 2.5 µg/mL. In addition, the MIC in series [15] (Test 3) is 2.5 µg/mL. Moreover, the “Recovery of C.albicans (as percentage of control)” value in series [14] (5 mg/kg) is reported as 56.2 percentage of control; in [14] (20 mg/kg), 46.5 percentage of control.

`CCn1cc(C(=O)O)c(=O)c2ccc(C)nc21` [NA, Nalidixic Acid]: the zone of inhibition at 50 µg/disc was found to be 9 mm in [2]; 7 mm in series [3] (Pseudomonas aeruginosa); 0 mm in [4] (Streptococcus); 7 mm in [5]; 18 mm in series [6]; 21 mm in [7] (Klebsiella). Also, the values for the zone of inhibition at 50 µg/disc in [8] and in series [9] were 25 mm and 0 mm, respectively.

As for `Clc1ccc(/C(Cn2ccnc2)=N/Nc2ccccc2Cl)cc1` [HC 501, (Z)-1-(4-chlorophenyl)-2-(1H-imidazol-1-yl)ethanone,2-chlorophenylhydrazone, hydrochloride], the IC50 in series [17] was below 780 nM. Besides, the ED50 in series [1] (setting [18]) stood at 0.003 mg/kg.
